In US5001129A, “Oxazoloquinoline compounds and therapeutic application thereof” (Delalande S.A., priority 1987, dated 1991) one finds IC50, ED50 and LD50 data, which are given here for 18 compounds.

One data set deals with T1, monoamine oxydase (Rattus norvegicus, UniProt P21396).
T1 construct: in vitro on homogenates of rat brain; from tissue; host or cells: rat brain homogenate
T1 sequence (P21396 1-526): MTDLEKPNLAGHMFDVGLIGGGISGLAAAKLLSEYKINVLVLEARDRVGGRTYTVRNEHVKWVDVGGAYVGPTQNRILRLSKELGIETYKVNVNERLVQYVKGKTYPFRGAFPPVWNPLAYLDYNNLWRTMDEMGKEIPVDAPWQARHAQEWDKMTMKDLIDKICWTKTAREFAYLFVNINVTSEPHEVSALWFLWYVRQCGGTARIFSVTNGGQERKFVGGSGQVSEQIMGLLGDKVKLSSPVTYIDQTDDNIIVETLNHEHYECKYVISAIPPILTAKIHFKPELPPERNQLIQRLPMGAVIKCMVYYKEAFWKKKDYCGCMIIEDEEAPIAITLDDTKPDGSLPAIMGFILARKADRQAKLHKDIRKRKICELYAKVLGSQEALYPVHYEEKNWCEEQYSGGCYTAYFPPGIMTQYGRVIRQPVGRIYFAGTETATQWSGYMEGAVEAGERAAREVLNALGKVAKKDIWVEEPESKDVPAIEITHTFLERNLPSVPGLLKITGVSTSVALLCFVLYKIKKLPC
The data set can be described thus: inhibition of the activity of the monoamine oxydase in vitro on homogenates of rat brain (serotonin as substrate). Type of data set: biochemical. The settings on record: serotonin as substrate at 480 μM, read-out: Test in vitro IC50. How it is done:
in vitro on homogenates of rat brain, by measuring the concentration of the product inhibiting by 50% (IC50) the activity of the monoamine oxydase utilising serotonin as substrate at 480 μM, according to the method described by M. STROLIN BENEDETTI. T. BOUCHER and C. J. FOWLER in Naunyn--Schmiedebergs Archiv. of Pharm. (1983) 323, 315-320;

In data set [1] the test system is effects of serotonin (precursor hydroxy-5 tryptophan, 5-HTP). The data set can be described thus: potentiation of hydroxy-5 tryptophan (5-HTP): generalised trembling or stereotypies in rats. The settings on record: Rattus norvegicus, oral, 1 h before 120 mg/kg i.p. 5-HTP, generalised trembling or stereotypies in 50% of the animals, read-out: Test in vivo ED50. How it is done:
in vivo by determining in rats the dose of the product which, administered orally, causes in 50% of the animals (ED50) the appearance of generalised trembling or stereotypies (finger-tapping as on a piano, movements of the head) following the intraperitoneal administration 1 h after the first treatment of a dose of 120 mg/kg of hydroxy-5 tryptophan (5-HTP) [M. JALFRE, B. BUCHER, A. COSTON, G. MOCQUET, R. D. PORSOLT, Arch. Int. Pharmacodyn., (1982), 259, 194-221].

The nature of a further data set: LD50 in mice, oral. Particulars: mouse, in vivo.

In general, IC50 refers to the concentration needed to halve the response being measured. What is called ED50 is the midpoint of the dose-response relation. As usually defined, the LD50 is the dose expected to kill half of the subjects tested.

Take `C=C[C@H]1OC(=O)N2c3ccccc3CC[C@@H]12` (relative stereo) [MD 200502, ethenyl-3 tetrahydro-3,3a,4,5 1H-oxazolo [3,4-a] quinoline-one-1]: the IC50 at monoamine oxydase worked out at 500 nM.

For `C=C[C@@H]1OC(=O)N2c3ccccc3CC[C@@H]12` (relative stereo) [MD 200503, ethenyl-3 tetrahydro-3,3a,4,5 1H-oxazolo [3,4-a] quinoline-one-1], the ED50 in data set [1] amounted to 20 mg/kg. In addition, the IC50 on monoamine oxydase was found to be 57 nM.

As to `O=C1O[C@H](CO)[C@@H]2CCc3ccccc3N12` (relative stereo) [MD 200504, cis hydroxymethyl-3 tetrahydro-3,3a,4,5 1H-oxazolo [3,4-a] quinoline-one-1], in data set [1], the ED50 turned out to be 7.8 mg/kg.

On to `O=C1O[C@H](CO)[C@@H]2Cc3ccccc3N12` (relative stereo) [MD 200602], for which, at monoamine oxydase, the half-inhibitory concentration (IC50) came out at 2800 nM.

Take `COC[C@H]1OC(=O)N2c3ccccc3CC[C@@H]12` (relative stereo) [MD 200682, cis methoxymethyl-3 tetrahydro-3,3a,4,5 1H oxazolo [3,4-a] quinoline-one-1]: the 50% effective dose (ED50) in data set [1] is 2.3 mg/kg. Besides, the half-maximal inhibitory concentration (IC50) on monoamine oxydase is 90 nM.

In the case of `O=C1O[C@@H](CO)[C@@H]2Cc3ccccc3N12` (relative stereo) [MD 200718], at monoamine oxydase, the IC50 worked out at 8700 nM.

With `COc1ccc2c(c1)CC[C@H]1[C@@H](CO)OC(=O)N21` (relative stereo) [MD 280386, cis hydroxymethyl-3 methoxy-7 tetrahydro-3,3a,4,5 1H-oxazino [3, 4a] quinoline-one-1], on monoamine oxydase, the IC50 stood at 19 nM.

For the compound `COc1ccc2c(c1)CC[C@H]1[C@H](CO)OC(=O)N21` (relative stereo) [MD 280387], at monoamine oxydase, the concentration for half-maximal inhibition (IC50) is 75 nM.

As to `C=C[C@@H]1OC(=O)N2c3ccc(OC)cc3CC[C@@H]12` (relative stereo) [MD 280404, ethenyl-3 methoxy-7 tetrahydro-3,3a, 4,5 1H-oxazolo [3.4-a] quinoline-one-1], the ED50 in data set [1] was determined as 11 mg/kg. Moreover, on monoamine oxydase, the IC50 came out at 29 nM.

As for `C[C@@H]1OC(=O)N2c3ccccc3CC[C@@H]12` (relative stereo) [MD 280430, trans methyl-3 tetrahydro-3,3a,4,5 1 H-oxazolo [3,4-a] quinoline-one-1], the 50% effective dose (ED50) in data set [1] is 105 mg/kg. At monoamine oxydase, the IC50 was determined as 1400 nM.

On to `COC[C@H]1OC(=O)N2c3ccc(OC)cc3CC[C@@H]12` (relative stereo) [MD 280448], for which the 50% effective dose (ED50) in data set [1] stood at 1.8 mg/kg. For the same compound, the 50% inhibitory concentration (IC50) on monoamine oxydase was determined as 9 nM.

Consider `COC[C@@H]1OC(=O)N2c3ccc(OC)cc3CC[C@@H]12` (relative stereo) [MD 280449], for which the median lethal dose (LD50) in the data set “LD50 in mice, oral” amounted to 1120 mg/kg. For the same compound, at monoamine oxydase, the IC50 worked out at 6 nM.

Take `COc1ccc2c(c1)CC[C@H]1[C@@H](CN)OC(=O)N21` (relative stereo) [MD 370024, cis aminomethyl-3 methoxy-7 tetrahydro-3,3a,4,5 1H-oxazolo [3,4-a] quinoline-one-2]: at monoamine oxydase, the IC50 turned out to be 1000 nM.

In the case of `COc1ccc2c(c1)CC[C@H]1[C@H](CN)OC(=O)N21` (relative stereo) [MD 370025], at monoamine oxydase, the IC50 is 1600 nM.

Regarding `CNC[C@H]1OC(=O)N2c3ccc(OC)cc3CC[C@@H]12` (relative stereo) [MD 370026], the LD50 in “LD50 in mice, oral” worked out at 263 mg/kg.

Consider `CNC[C@@H]1OC(=O)N2c3ccc(OC)cc3CC[C@@H]12` (relative stereo) [MD 370027], for which the ED50 in data set [1] is 5.8 mg/kg.

For the compound `O=C1O[C@@H](CO)[C@@H]2CCc3ccc(Cl)cc3N12` (relative stereo) [MD 370335], the half-maximal inhibitory concentration (IC50) at monoamine oxydase came to 97 nM.

With `O=C1O[C@H](CO)[C@@H]2CCc3ccc(Cl)cc3N12` (relative stereo) [MD 370336], on monoamine oxydase, the IC50 was 80 nM.
